Assay results from the supplement of paper PMC10307832.

What was measured:
Test in all cases: relative viability (nuclei count vs DMSO), 5 days (fraction); higher = more cells survive
Bortezomib + Palbociclib = compound: CC(C)C[C@H](NC(=O)[C@H](Cc1ccccc1)NC(=O)c1cnccn1)B(O)O [Bortezomib] + CC(=O)c1c(C)c2cnc(Nc3ccc(N4CCNCC4)cn3)nc2n(C2CCCC2)c1=O [Palbociclib] (partner 0.5 µM)
Outline: (§1)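 Relative viability equals treated-well nuclei counts divided by vehicle-well nuclei counts. Counts came from 4× images of lung cancer cell lines grown in 1536-well plates for 5 days after pin-tool dosing on the day after seeding. Dosing used one drug alone or a fixed anchor-drug dose plus five library-drug doses (not always all listed) in √10 steps, and values are medians of duplicate plates.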

Bortezomib + AZD7762 = compound: CC(C)C[C@H](NC(=O)[C@H](Cc1ccccc1)NC(=O)c1cnccn1)B(O)O [Bortezomib] + NC(=O)Nc1cc(-c2cccc(F)c2)sc1C(=O)N[C@H]1CCCNC1 [AZD7762] (partner 0.2 µM)
Outline: as §1

Obatoclax + Decitabine = compound: COC1=CC(c2cc3ccccc3[nH]2)=N/C1=C\c1[nH]c(C)cc1C [Obatoclax] + Nc1ncn([C@H]2C[C@H](O)[C@@H](CO)O2)c(=O)n1 [Decitabine] (partner 2 µM)
Outline: as §1

[1] = compound: CC1=CC(=NN1)NC2=CC(=NC(=N2)/C=C/C3=CC=CC=C3)N4CCN(CC4)C + CC(C)C[C@H](NC(=O)[C@H](Cc1ccccc1)NC(=O)c1cnccn1)B(O)O [Bortezomib] (partner 0.002 µM)
Outline: as §1

Cell Line	relative viability (Bortezomib + Palbociclib; first compound 0.0002 µM)	relative viability (Bortezomib + Palbociclib; first compound 0.000632 µM)	relative viability (Bortezomib + Palbociclib; first compound 0.002 µM)	relative viability (Bortezomib + Palbociclib; first compound 0.006325 µM)	relative viability (Bortezomib + Palbociclib; first compound 0.02 µM)	relative viability (Bortezomib + AZD7762; first compound 0.0002 µM)	relative viability (Bortezomib + AZD7762; first compound 0.000632 µM)	relative viability (Bortezomib + AZD7762; first compound 0.002 µM)	relative viability (Bortezomib + AZD7762; first compound 0.006325 µM)	relative viability (Bortezomib + AZD7762; first compound 0.02 µM)	relative viability (Obatoclax + Decitabine; first compound 0.01 µM)	relative viability (Obatoclax + Decitabine; first compound 0.03162 µM)	relative viability (Obatoclax + Decitabine; first compound 0.1 µM)	relative viability (Obatoclax + Decitabine; first compound 0.3162 µM)	relative viability (Obatoclax + Decitabine; first compound 1 µM)	relative viability ([1]; first compound 0.08 µM)	relative viability ([1]; first compound 0.253 µM)	relative viability ([1]; first compound 0.8 µM)	relative viability ([1]; first compound 2.53 µM)	relative viability ([1]; first compound 8 µM)
NCI-H358	0.158	0.11	0.0987	0.0826	0.0983	0.615	0.285	0.619	0.241	0.225	0.213	0.187	0.232	0.157	0.137					
NCI-H520	0.198	0.18	0.169	0.141	0.131						0.441	0.309	0.631	0.507	0.292	0.487	0.599	0.395	0.154	0.11
NCI-H522	0.932	0.982	1.1	0.35	0.343	0.794	0.719	0.715	0.384	0.356	0.708	0.642	0.607	0.747	0.608					
NCI-H596						0.983	1.22	1.15	0.634	0.205	0.953	0.986	1.04	0.848	0.79	1.2	1.01	0.756	0.616	0.268
NCI-H661	0.4	0.409	0.434	0.284	0.203						0.539	0.532	0.594	0.558	0.489	0.741	0.906	0.839	0.669	0.203
NCI-H1299																1	1.05	1	0.854	0.211
NCI-H1395	0.591	0.614	0.38	0.31	0.253	0.381	0.393	0.385	0.323	0.304	0.716	0.735	0.754	0.695	0.513					
NCI-H1563																0.943	0.874	0.863	0.714	0.428
NCI-H1648	0.208	0.296	0.258	0.261	0.275	0.549	0.634	0.771	0.518	0.269	0.594	0.421	0.829	0.447	0.39					
NCI-H1650	0.342	0.312	0.136	0.117	0.146						0.457	0.352	0.47	0.268	0.267	0.209	0.191	0.182	0.183	0.19
NCI-H1703						0.117	0.102	0.133	0.178	0.137						0.261	0.319	0.236	0.174	0.117
NCI-H1793	0.336		0.375	0.205	0.143	0.512		0.394	0.803	0.0834	0.578	0.47	0.519	0.421	0.415					
NCI-H1944	0.315	0.309	0.336	0.21	0.15	0.508	0.511	0.637	0.295	0.166	0.429	0.42	0.464	0.431	0.388					
NCI-H2009	0.241	0.205	0.176	0.0661	0.0466						0.371	0.384	0.358	0.305	0.213	1.04	0.54	1.11	0.423	0.15
NCI-H2023	0.303	0.345	0.332	0.0803	0.0773						0.216	0.203	0.222	0.159	0.0785	1.01	1.12	0.91	0.0954	0.0652
NCI-H2170	0.376	0.394	0.402	0.221	0.125	0.804	0.685	0.943	0.54	0.113	0.47	0.393	0.47	0.453	0.441					
NCI-H2228	0.587	0.843	0.72	0.0946	0.0943											0.96	0.917	0.74	0.0986	0.0661
NCI-H2342	0.578	0.502	0.54	0.534	0.357	0.64	0.486	0.478	0.582	0.433	0.724	0.782	0.758	0.732	0.812					
SK-LU-1	0.387	0.361	0.359	0.279	0.158						0.682	0.567	0.454	0.478	0.363	1.1	1.28	1.01	0.429	0.195
SK-MES-1	0.317	0.321	0.296	0.159	0.179						0.366	0.374	0.468	0.233	0.202					
SW 900	0.504	0.37	0.203	0.2	0.195	0.572	0.627	0.188	0.178	0.158	0.438	0.426	0.364	0.402	0.382					
SW 1573	0.346	0.419	0.171	0.055	0.0399						0.432	0.434	0.437	0.139	0.194	1.13	1.02	1.02	0.348	0.1
UMC-11	0.3	0.334	0.294	0.295	0.214						0.608	0.536	0.475	0.573	0.41	0.718	0.726	0.636	0.12	0.08
